Data published in paper PMC7235863, “Benzamide Derivatives Targeting the Cell Division Protein FtsZ: Modifications of the Linker and the Benzodioxane Scaffold and Their Effects on Antimicrobial Activity” (Antibiotics, 2020).
≈ marks a conversion by molar mass, not a printed value. Like-named read-outs stand apart in the source and are kept apart here.

How the values were obtained:
[1] = tested on: E. coli N43; test: Broth microdilution MIC, efflux-defective E. coli N43; assay type: cell-based, Escherichia coli
Experimental: (§1) We thus tested 1–8 and III initially on the reference sensitive E. coli ATCC 25922 and on the extended-spectrum of beta-lactamase-positive (ESBL) E. coli, as Gram-negative bacteria. Moreover, in order to evaluate the susceptibility of this series of compounds to the efflux pump AcrAB, we employed also the above-mentioned E. coli N43, which is the knockout of the AcrAB cell membrane pump.
(§2) Antibacterial activities of compounds were determined by the broth microdilution method against MDRSA 11.7, MDRSA 12.1 and E. coli N43 following the European Committee on Antimicrobial Susceptibility Testing (EUCAST) recommendations and Clinical and Laboratory Standards Institute (CLSI) guidelines. Strains MDRSA ST-11.7 and ST-12.1 were obtained through the interlaboratory control organized by the EU Reference Laboratory—Antimicrobial Resistance. Only data on their resistance to antibiotics are known, but other data are not available.
(§3) Bacterial suspension of specific bacterial strain equivalent to 0.5 McFarland turbidity standard was diluted with cation-adjusted Mueller Hinton broth with TES (Thermo Fisher Scientific), to obtain a final inoculum of 10^5 CFU/mL. Compounds dissolved in DMSO and inoculum were mixed together and incubated for 20 h at 37 °C. After incubation, the minimal inhibitory concentration (MIC) values were determined by visual inspection as the lowest dilution of compounds showing no turbidity. Tetracycline was used as a positive control on every assay plate.

[2] = tested on: MDRSA 11.7; test: Broth microdilution MIC, MDRSA 11.7; assay type: cell-based, Staphylococcus aureus
Experimental: (§4) Antimicrobial activity of 1–8 was evaluated on both Gram-positive (Table 3) and Gram-negative (Table 4) species. As a continuation of our previous studies, considering the Gram-positive S. aureus, we chose a methicillin-sensitive S. aureus (MSSA, ATCC 29213), a methicillin-resistant S. aureus (MRSA, ATCC 43300) and two clinical isolates of S. aureus showing multi-drug resistance (MDRSA).
as §2, §3

[3] = tested on: MDRSA 12.1; test: Broth microdilution MIC, MDRSA 12.1; assay type: cell-based, Staphylococcus aureus
Experimental: as §4, §2, §3

[4] = tested on: E. coli ATCC 25922; test: MIC on reference sensitive E. coli; assay type: cell-based, Escherichia coli
Source text: as §1

[5] = tested on: MSSA ATCC 29213; test: MIC/MBC determination in LB broth, MSSA; assay type: cell-based, Staphylococcus aureus; details: MSSA ATCC 29213
Experimental: (§5) Normal human lung fibroblasts (MRC-5) were grown in Dulbecco’s modified Eagle’s medium (DMEM) supplemented with 10% calf serum, 100 U/mL penicillin and […] streptomycin in an incubator at 5% CO2 atmosphere and 37 °C. The Gram-positive Staphylococcus aureus (methicillin-sensitive, MSSA ATCC 29213, and methicillin-resistant, MRSA ATCC 43300) and the Gram-negative Escherichia coli (ESBL, extended-spectrum beta-lactamase-positive) bacterial cells were grown in Luria-Bertani broth (LB) at 37 °C under constant shaking at 300 rpm.
(§6) The antibacterial activity was tested on both a methicillin-sensitive and a methicillin-resistant S. aureus strain, and an ESBL E. coli clinical isolate. All the compounds were dissolved at the final concentration of 20 mg/mL in dimethyl sulfoxide (DMSO) and serially diluted in LB. Fresh cell cultures were used at 10^5 cells/mL in a final volume of 2 mL. Each bacterial sample was grown with different compound concentrations that ranged from 100 to 0.1 μg/mL. […] To determine the MBC, the bacteria were then washed three times with LB, centrifuged at 900× g for 10 min at 4 °C, and the pellet resuspended in fresh LB. After overnight incubation at 37 °C, the absence of growth was confirmed by OD measurement. The presence of antibacterial activity, at any concentration tested, was established for values of absorbance < 0.1 OD600. All tests were performed in quadruplicate and for each series of experiments, both positive (no compounds) and negative (no bacteria) controls were included.

[6] = tested on: MRSA ATCC 43300; test: MIC/MBC determination in LB broth, MRSA; assay type: cell-based, Staphylococcus aureus
Experimental: as §5, §6

[7] = tested on: ESBL E. coli; test: MIC in LB broth, ESBL E. coli clinical isolate; assay type: cell-based, Escherichia coli
Experimental: as §1, §5, §6

[8] = tested on: MRC-5 cells; test: MTT cytotoxicity assay; assay type: cell-based, human; details: MRC-5, concentration reducing cell viability by 90%, 24-h incubation
Experimental: The compounds showing the most promising activities vs. MRSA were also assessed for their cytotoxicity on human MRC-5 cells. TD90, the concentration (µg/mL) able to reduce by 90% the viability of these cells, was determined together with the therapeutic index (TI), expressed as the ratio between TD90 and MBC values.
as §5
Compounds showing an antibacterial activity at a concentration lower than 10 μg/mL were serially diluted in DMEM and tested on MRC-5 cells by the MTT cytotoxicity assay (Sigma, St Louis, MO, USA). Cells (10^4 cells/well) were tested in a 96-well plate, in quadruplicate, using serially two-fold-diluted concentrations of the compound in 100 μL DMEM medium. After a 24-h incubation, the compound was removed, and the cells were overlaid with 1 mg/mL MTT in 100 μL serum-free DMEM for 3 h at 37 °C. The MTT solution was then replaced with DMSO for 10 min, and the absorbance was measured at 570 nm. The percentage of cytotoxicity was calculated by the formula [100 − (sample OD/untreated cells OD) × 100]. The compound concentration reducing cell viability by 90% was defined as the TD90 cytotoxic dose. The “therapeutic index” (TI) was also determined and defined as the ratio between TD90 and the MBC values.

[9] = tested on: Methicillin Sensitive S. aureus; details: cited from earlier work; for MIC vs. MSSA: chromanes ref 22
[10] = tested on: S. aureus ATCC 43300; test: Transmission electron microscopy of septum formation; assay type: cell-based, Staphylococcus aureus; details: MRSA cultured overnight; 1 at 1 μg/mL, DFNB at 0.25 μg/mL
Source text: After having assessed the antimicrobial profile of this class of derivatives, we chose 1 to be further analyzed by transmission electron microscopy (TEM), in order to evaluate any morphological changes in septum formation, as done before as a simple FtsZ target validation assay. We cultured S. aureus ATCC 43300 alone or in the presence of 1 and 2,6-difluorononyloxybenzamide (DFNB) as a reference FtsZ inhibitor (positive control). […] These are the typical effects of the inhibition of FtsZ assembly and consequently of the block of bacterial cell division.
S. aureus ATCC 43300 (10^9 cells/mL) were cultured in the presence of 1 and DFNB (positive control), at the same concentrations used for optical microscopy and, after 16 h incubation at 37 °C, the cells were harvested and processed for transmission electron microscopy, as already described. Untreated S. aureus was used as negative control. After centrifugation at 3100× g for 5 min at room temperature, pelleted bacteria were fixed in 2.5% glutaraldehyde (Polysciences, Warrington, PA) in 0.1 M Na cacodylate buffer, pH 7.4, for 1 h at 4 °C, rinsed twice and post-fixed in Na cacodylate-buffered 1% OsO4 for 1 h at 4 °C. The samples were dehydrated through a series of graded ethanol solutions and propylene oxide and embedded in Poly/Bed 812 resin mixture. […]

[11] = tested on: E. coli AcrAB–; details: ref 10 (Z2, Z3), 11 (TXY436), 12 (I, II); cited from earlier work
[12] = Staphylococcus aureus, read-out: MIC
[13] = Staphylococcus aureus, read-out: MBC
[14] = Escherichia coli, read-out: MIC

## NC(=O)c1c(F)ccc(OCCC2COc3ccccc3O2)c1F (centres unmarked) [Compound 7]
[1]; Escherichia coli, N43
  MIC: 8 µg/mL (≈ 23.9 µM)
[2]; [12]
  MIC: 4 µg/mL (≈ 11.9 µM)
[3]; [12]
  MIC: 4 µg/mL (≈ 11.9 µM)
[4]; Escherichia coli, ATCC25922
  MIC: > 100 µg/mL
[5]
  MBC/MIC: 1
[5]; [13]
  MBC: 5 µg/mL (≈ 14.9 µM)
[5]; [12]
  MIC: 5 µg/mL (≈ 14.9 µM)
[6]
  MBC/MIC: 1
[6]; [13]
  MBC: 5 µg/mL (≈ 14.9 µM)
[6]; [12]
  MIC: 5 µg/mL (≈ 14.9 µM)
[7]; [14]
  MIC: > 100 µg/mL
[8]
  TD90: 380 µg/mL

## NC(=O)c1c(F)ccc(OCC2COc3ccccc3S2(=O)=O)c1F (centres unmarked) [Compound 4]
[4]; Escherichia coli, ATCC25922
  MIC: > 100 µg/mL
[5]; [13]
  MBC: > 100 µg/mL
[5]; [12]
  MIC: > 100 µg/mL
[6]; [13]
  MBC: > 100 µg/mL
[6]; [12]
  MIC: > 100 µg/mL
[7]; [14]
  MIC: > 100 µg/mL

## NC(=O)c1c(F)ccc(OCC2COc3ccccc3C2)c1F (centres unmarked) [V]
[9]
  MIC vs. MSSA: 100 µg/mL (≈ 313 µM)

## 3-(1,4-benzodithiane-2-yl)-2,6-difluorobenzamide [Compound 5]
[1]; E. coli N43 (AcrAB knockout)
  MIC: >128 µg/mL
[2]
  MIC: 8 µg/mL
[3]
  MIC: 8 µg/mL
[4]; E. coli ATCC 25922
  MIC: >100 µg/mL
[5]
  MBC: 10 µg/mL
  MBC/MIC: 2
  MIC: 5 µg/mL
[6]
  MBC: 10 µg/mL
  MBC/MIC: 2
  MIC: 5 µg/mL
[7]
  MIC: >100 µg/mL
[8]
  TD90: 200 µg/mL

## 3-(1,4-benzoxathiane-2-yl)-2,6-difluorobenzamide [Compound 1]
[1]; E. coli N43 (AcrAB knockout)
  MIC: 64 µg/mL
[2]
  MIC: 2 µg/mL
[10]
  Morphological changes in septum formation (TEM): strong alterations in the septum formation and bacterial desegregation
[3]
  MIC: 2 µg/mL
[4]; E. coli ATCC 25922
  MIC: >100 µg/mL
[5]
  MBC: 1 µg/mL
  MBC/MIC: 1
  MIC: 1 µg/mL
[6]
  MBC: 1 µg/mL
  MBC/MIC: 1
  MIC: 1 µg/mL
[7]
  MIC: >100 µg/mL
[8]
  TD90: >800 µg/mL

## CCN(CC)CCNc1nc(/C=C/c2ccc(Cl)cc2)nc2cc3ccccc3cc12 [Compound Z3]
[11]
  MIC: 4 µg/mL (≈ 9.28 µM)
[9]; Methicillin Sensitive S. aureus, ref 10 (Z2, Z3), 11 (TXY436), 12 (I, II)
  MIC: 2.1 µg/mL (≈ 4.87 µM)

## NC(=O)c1c(F)ccc(OCC2CCc3ccccc3O2)c1F (centres unmarked) [IV]
[9]
  MIC vs. MSSA: 5 µg/mL (≈ 15.7 µM)
